The test system of series [1] is vision impairment related to LCAT deficiency (ocular lipid deposits). In words: CER-001 therapy for LCAT deficiency-related vision impairment. Format: in vivo, human. The method, then:
A subject with LCAT deficiency and having vision impairment related to the subject's LCAT deficiency (said vision impairment being due to ocular lipid deposits) was administered CER-001 according to a treatment regimen comprising an induction regimen, a consolidation regimen, and a maintenance regimen.
Prior to treatment with CER-001, the subject had ocular lipid deposits presenting as white corneal ring opacities. The subject had normal visual acuity but visual blur, especially at night. […] Next-generation sequencing confirmed the subject as compound-heterozygous for two LCAT gene variations, but none in the ABCA1 or APOA1 genes. The first allele, motherly inherited, is an exon-5 (c.605T>C) missense mutation p.(Ile202Thr), previously well-established as familial LCAT deficiency (FLD)-causing in Europe. The paternal allele (c.154+5G>C), was novel and absent from general referral population databases. It alters a highly evolutionary-conserved residue of intron-1 donor splice-site, thereby potentially altering exon-1 mRNA-splicing and creating a cryptic acceptor splice-site at position c.154+15. […]
The induction regimen comprised nine doses of CER-001 administered over three weeks. The dose of CER-001 administered in the […] regimen was 10 mg/kg, calculated based upon the amount of ApoA-I in the CER-001 administered and the weight of the subject.
Following the induction regimen, the subject was administered CER-001 according to a consolidation regimen comprising seven doses of CER-001 administered over four weeks. The dose of CER-001 administered in the […] regimen was 10 mg/kg, calculated based upon the amount of ApoA-I in the CER-001 administered and the weight of the subject.
Following the consolidation regimen, the subject was administered CER-001 according to a maintenance regimen comprising once a week administration of CER-001 for three weeks. The dose of CER-001 administered in the maintenance regimen was 10 mg/kg calculated based upon the amount of ApoA-I in the CER-001 to be administered and the weight of the subject. […]

A short description of series [2]: CER-001 as carrier for ophthalmic drugs: appearance of samples after thermal cycling. Format: physicochemical. The method, then:
A solution of CER-001 was mixed with azithromycin to provide a final azithromycin concentration of 10 mg/ml and subjected to five heating and cooling cycles from 37° C. to 55° C. to promote complexation of azithromycin to CER-001. For controls, a sample of CER-001 without added azithromycin and a sample of azithromycin at a concentration of 10 mg/ml in phosphate buffered saline (PBS) were similarly subjected to five heating and cooling cycles from 37° C. to 55° C.
A solution of CER-001 was mixed with spironolactone to provide a final spironolactone concentration of 1.5 mg/ml and subjected to five heating and cooling cycles from 37° C. to 55° C. to promote complexation of spironolactone to CER-001. For controls, a sample of CER-001 without added spironolactone and a sample of spironolactone at a concentration of 1.5 mg/ml in phosphate buffered saline (PBS) were similarly subjected to five heating and cooling cycles from 37° C. to 55° C.
A solution of CER-001 was mixed with cyclosporine to provide a final cyclosporine concentration of 1 mg/ml and subjected to five heating and cooling cycles from 37° C. to 55° C. to promote complexation of cyclosporine to CER-001. For controls, a sample of CER-001 without added cyclosporine and a sample of cyclosporine at a concentration of 1 mg/ml in phosphate buffered saline (PBS) were similarly subjected to five heating and cooling cycles from 37° C. to 55° C.

In series [3] the test system is eyes of albino rabbits. It counts as in vivo. As to conditions: for ocular tolerance: albino rabbits, CER-001 8 mg/ml (protein weight basis).
Series [4] relates to endotoxin-induced uveitis (severe inflammation). Format: in vivo. The note with it: albino rabbits. The method, then:
CER-001 vehicle and Solu-Medrol®, an injectable formulation containing the anti-inflammatory glucocorticoid methylprednisolone sodium succinate, were included as controls. Tolerance was assessed by the McDonald-Shadduck scoring system (see, Eaton et al., Journal of Ocular Pharmacology and Therapeutics 33(10):718-734) 6 and 24 hours after administration. Cell infiltration and protein content in the aqueous humor were measured 24 hours after administration.

Read-outs that look alike come from different tables or passages of the source.

As for “CER-001: lipoprotein complex of ApoA-I and phospholipids, 1:2.7 lipoprotein weight:total phospholipid weight ratio, SM:DPPG weight ratio 97:3”, in series [1] (end of 3 months off-treatment follow-up), the “visual blur at the end of the follow-up period” value is on record as “did not recur”. Moreover, the “effect of administration on vision” value in series [1] (one subject with LCAT deficiency, IV infusion 10 mg/kg, later 20 mg/kg, 5 months treatment) is “normalization of vision”. In series [1] (one subject with LCAT deficiency, IV infusion 10 mg/kg, later 20 mg/kg, induction, consolidation, maintenance, 5 months treatment), the “subject's vision during treatment” value is “improved during the course of treatment”. In series [2] (CER-001 without added drug, five heating and cooling cycles from 37° C. to 55° C.), the “appearance of sample following the heating and cooling cycles” value (from here on “appearance”) is given as “remained clear”. Moreover, in series [2] (thermal cycling 37° C. to 55° C.), the “complexation with ophthalmic drugs (summary of Example 1)” value was “can complex with azithromycin, spironolactone, dexamethasone palmitate, and cyclosporine”. The ocular tolerance result in series [3] (repeated topical administration of up to 8 drops) and in series [3] (single intravitreal administration) was “No tolerance issues were observed” each time. Moreover, the “ocular tolerance (statement referring to Examples 3 and 4)” value in series [3] (even with repeated administrations) is “good ocular tolerance”. In addition, in series [4] (24 hours after administration, FIG. 3A), the “cell infiltration in the aqueous humor” value is given as “positive effect”. In addition, the “protein in the aqueous humor” value in series [4] (24 hours after administration, FIG. 3B) is “positive effect”. Also, in series [4] (single intravitreal administration, including 8 mg/ml, 6 and 24 hours, FIGS. 2A-2C), the “tolerance (McDonald-Shadduck scoring system)” value is on record as “induced significant tolerance”.
Consider `CC[C@H]1OC(=O)[C@H](C)[C@@H](O[C@H]2C[C@@](C)(OC)[C@@H](O)[C@H](C)O2)[C@H](C)[C@@H](O[C@@H]2O[C@H](C)C[C@H](N(C)C)[C@H]2O)[C@](C)(O)C[C@@H](C)CN(C)[C@H](C)[C@@H](O)[C@]1(C)O` [azithromycin, reference compound], for which the “appearance” value in series [2] (azithromycin 10 mg/ml in PBS, five cycles 37° C. to 55° C., FIG. 1A) is “contained numerous crystals in the liquid and on the glass tube”.
For `CC(=O)S[C@@H]1CC2=CC(=O)CC[C@]2(C)[C@H]2CC[C@@]3(C)[C@@H](CC[C@@]34CCC(=O)O4)[C@H]12` [spironolactone, reference compound], the “appearance” value in series [2] (spironolactone 1.5 mg/ml in PBS, five cycles 37° C. to 55° C., FIG. 1B) was “contained numerous crystals in the liquid, on the glass tube, and above the meniscus”.

The values above are taken from patent US20240000948A1, “METHODS FOR TREATING EYE DISEASES USING LIPID BINDING PROTEIN-BASED COMPLEXES” (ABIONYX PHARMA SA, priority 2020, published 2024).
